Test results taken from patent publication US20230398130A1, “METHODS AND COMPOSITIONS FOR DIFFERENTIATING STEM CELLS” (Massachusetts Institute of Technology, priority 2020, published 2023).
Where a name gives a salt, the structure may show the parent alone.

How the values were obtained:
ISC-enriched organoids [1] = experiment: Primary screen, 384-well 2.5-D organoid differentiation (ENR+CD, 6 days): basal lysozyme secretion (LYZ.NS); format: cell-based, murine; conditions: primary screen; for Dose.FC.LYZ.NS: FC vs plate median; for Z.LYZ.NS: standard z score; for SSMD.LYZ.NS: strictly standardized mean difference
Description: (§1) High-throughput screening.

ISC-enriched organoids [2] = experiment: Primary screen, 384-well 2.5-D organoid differentiation (ENR+CD, 6 days): carbachol-induced lysozyme secretion (LYZ.S); format: cell-based, murine; conditions: primary screen; for Dose.FC.LYZ.S: FC vs plate median; for Z.LYZ.S: standard z score; for SSMD.LYZ.S: strictly standardized mean difference
Description: as §1

ISC-enriched organoids [3] = experiment: Primary screen, 384-well 2.5-D organoid differentiation (ENR+CD, 6 days, Target Selective Inhibitor Library, vs whole-plate median): ATP (CellTiter-Glo 3D, CTG); conditions: primary screen; for Dose.FC.CTG: FC vs plate median; for Z.CTG: standard z score; for SSMD.CTG: strictly standardized mean difference
[4] = 1st of the 4 dose lines of the treatment (dose not given)
[5] = 2nd of the 4 dose lines of the treatment (dose not given)
[6] = 3rd of the 4 dose lines of the treatment (dose not given)
[7] = 4th of the 4 dose lines of the treatment (dose not given)

| SMILES | SSMD.LYZ.NS (ISC-enriched organoids [1]; [4]) | SSMD.LYZ.NS (ISC-enriched organoids [1]; [5]) | SSMD.LYZ.NS (ISC-enriched organoids [1]; [6]) | SSMD.LYZ.NS (ISC-enriched organoids [1]; [7]) | Z.LYZ.S (ISC-enriched organoids [2]; [4]) | Z.LYZ.S (ISC-enriched organoids [2]; [5]) | Z.LYZ.S (ISC-enriched organoids [2]; [6]) | Z.LYZ.S (ISC-enriched organoids [2]; [7]) | SSMD.LYZ.S (ISC-enriched organoids [2]; [4]) | SSMD.LYZ.S (ISC-enriched organoids [2]; [5]) | SSMD.LYZ.S (ISC-enriched organoids [2]; [6]) | SSMD.LYZ.S (ISC-enriched organoids [2]; [7]) | Z.CTG (ISC-enriched organoids [3]; Dose 0.08 uM) | Z.CTG (ISC-enriched organoids [3]; Dose 0.40 uM) | Z.CTG (ISC-enriched organoids [3]; Dose 2.00 uM) | Z.CTG (ISC-enriched organoids [3]; Dose 10.00 uM) | SSMD.CTG (ISC-enriched organoids [3]; [4]) | SSMD.CTG (ISC-enriched organoids [3]; [5]) | SSMD.CTG (ISC-enriched organoids [3]; [6]) | SSMD.CTG (ISC-enriched organoids [3]; [7]) | other results |
| --- | --- | --- | --- | --- | --- | --- | --- | --- | --- | --- | --- | --- | --- | --- | --- | --- | --- | --- | --- | --- | --- |
| Oc1ccc2ccccc2c1SSc1c(O)ccc2ccccc12 [IPA-3] | 0.027 | 0.026 | −0.008 | −0.175 | 0.413 | −0.202 | 0.431 | −0.347 | 0.356 | −0.184 | 0.324 | −0.305 | 0.524 | −0.793 | −0.202 | −0.128 | 0.818 | −0.408 | −0.316 | −0.172 | Dose.FC.LYZ.NS (ISC-enriched organoids [1]; Dose 0.08 uM): 0.004 log 2 fold change; Z.LYZ.NS (ISC-enriched organoids [1]; Dose 0.08 uM): 0.031; Dose.FC.LYZ.NS (ISC-enriched organoids [1]; Dose 0.40 uM): 0.003 log 2 fold change; Z.LYZ.NS (ISC-enriched organoids [1]; Dose 0.40 uM): 0.028; Dose.FC.LYZ.NS (ISC-enriched organoids [1]; Dose 2.00 uM): −0.001 log 2 fold change; Z.LYZ.NS (ISC-enriched organoids [1]; Dose 2.00 uM): −0.010; Dose.FC.LYZ.NS (ISC-enriched organoids [1]; Dose 10.00 uM): −0.021 log 2 fold change; Z.LYZ.NS (ISC-enriched organoids [1]; Dose 10.00 uM): −0.186; Dose.FC.LYZ.S (ISC-enriched organoids [2]; Dose 0.08 uM): 0.064 log 2 fold change; Dose.FC.LYZ.S (ISC-enriched organoids [2]; Dose 0.40 uM): −0.031 log 2 fold change; Dose.FC.LYZ.S (ISC-enriched organoids [2]; Dose 2.00 uM): 0.067 log 2 fold change; Dose.FC.LYZ.S (ISC-enriched organoids [2]; Dose 10.00 uM): −0.054 log 2 fold change; Dose.FC.CTG (ISC-enriched organoids [3]; Dose 0.08 uM): 0.219 log 2 fold change; Dose.FC.CTG (ISC-enriched organoids [3]; Dose 0.40 uM): −0.332 log 2 fold change; Dose.FC.CTG (ISC-enriched organoids [3]; Dose 2.00 uM): −0.084 log 2 fold change; Dose.FC.CTG (ISC-enriched organoids [3]; Dose 10.00 uM): −0.054 log 2 fold change |
| C#Cc1cccc(Nc2ncnc3cc4c(cc23)OCCOCCOCCO4)c1 [Icotinib] | 0.227 | −0.710 | −1.321 | −2.654 | 0.609 | −0.583 | −1.572 | −2.708 | 0.689 | −0.544 | −1.726 | −1.917 | −0.047 | −0.146 | −0.970 | −2.552 | −0.065 | −0.162 | −0.865 | −3.189 | – |
| CNC(=O)[C@H](Cc1c[nH]c2ccccc12)NC(=O)[C@@H](CC(=O)NO)CC(C)C [Ilomastat (GM6001, Galardin)] | 0.305 | −0.056 | 0.066 | −0.635 | 1.385 | 0.754 | 0.153 | −0.502 | 1.175 | 0.580 | 0.164 | −0.329 | 0.470 | 0.389 | 0.216 | −0.264 | 0.482 | 0.406 | 0.321 | −0.348 | Dose.FC.LYZ.NS (ISC-enriched organoids [1]; Dose 0.08 uM): 0.055 log 2 fold change; Z.LYZ.NS (ISC-enriched organoids [1]; Dose 0.08 uM): 0.482; Dose.FC.LYZ.NS (ISC-enriched organoids [1]; Dose 0.40 uM): −0.011 log 2 fold change; Z.LYZ.NS (ISC-enriched organoids [1]; Dose 0.40 uM): −0.092; Dose.FC.LYZ.NS (ISC-enriched organoids [1]; Dose 2.00 uM): 0.007 log 2 fold change; Z.LYZ.NS (ISC-enriched organoids [1]; Dose 2.00 uM): 0.064; Dose.FC.LYZ.NS (ISC-enriched organoids [1]; Dose 10.00 uM): −0.106 log 2 fold change; Z.LYZ.NS (ISC-enriched organoids [1]; Dose 10.00 uM): −0.919; Dose.FC.LYZ.S (ISC-enriched organoids [2]; Dose 0.08 uM): 0.214 log 2 fold change; Dose.FC.LYZ.S (ISC-enriched organoids [2]; Dose 0.40 uM): 0.117 log 2 fold change; Dose.FC.LYZ.S (ISC-enriched organoids [2]; Dose 2.00 uM): 0.024 log 2 fold change; Dose.FC.LYZ.S (ISC-enriched organoids [2]; Dose 10.00 uM): −0.078 log 2 fold change; Dose.FC.CTG (ISC-enriched organoids [3]; Dose 0.08 uM): 0.197 log 2 fold change; Dose.FC.CTG (ISC-enriched organoids [3]; Dose 0.40 uM): 0.163 log 2 fold change; Dose.FC.CTG (ISC-enriched organoids [3]; Dose 2.00 uM): 0.091 log 2 fold change; Dose.FC.CTG (ISC-enriched organoids [3]; Dose 10.00 uM): −0.110 log 2 fold change |
| CCOC(=O)[C@H](CCc1ccccc1)N[C@@H](C)C(=O)N1C(=O)N(C)C[C@H]1C(=O)O [Imidapril HCl] | −0.047 | 0.004 | 0.101 | −0.541 | −0.274 | 0.702 | −0.226 | −0.487 | −0.269 | 0.315 | −0.262 | −0.404 | −0.796 | −0.354 | −0.564 | −0.543 | −1.054 | −0.525 | −0.548 | −0.699 | – |
